Assay results from US20240158446A1, “CYCLIC COMPOUND HAVING SELECTIVE INHIBITORY ACTION ON KRAS OVER HRAS AND NRAS” (CHUGAI SEIYAKU KABUSHIKI KAISHA, priority 2021, published 2024).

Columns and labels:
[1] = target: GDP-bound HRAS wild-type protein (Homo sapiens, UniProt P01112); assay: Binding to HRAS by surface plasmon resonance (SPR), Single Cycle Kinetics; conditions: SPR; GDP-bound HRAS wild-type protein vs GDP-bound KRAS wild-type protein; KD ratio class
[2] = tested on: human lung cancer strain NCI-H441;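 further: cell proliferation inhibition after four days measured by CellTiter-Glo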
[3] = target: GDP-bound NRAS wild-type protein (Homo sapiens, UniProt P01111); assay: Binding to NRAS by surface plasmon resonance (SPR), Single Cycle Kinetics; conditions: SPR; GDP-bound NRAS wild-type protein vs GDP-bound KRAS wild-type protein; KD ratio class
GDP-bound NRAS wild-type protein, sequence (P01111 whole entry): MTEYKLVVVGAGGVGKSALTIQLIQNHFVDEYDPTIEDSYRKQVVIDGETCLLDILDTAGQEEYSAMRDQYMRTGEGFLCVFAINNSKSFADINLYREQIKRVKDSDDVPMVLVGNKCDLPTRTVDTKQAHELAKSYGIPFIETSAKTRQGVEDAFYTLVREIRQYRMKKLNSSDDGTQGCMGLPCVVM

[4] = target: GDP-bound KRAS wild-type protein (Homo sapiens, UniProt P01116); assay: Binding to KRAS by surface plasmon resonance (SPR), Single Cycle Kinetics; conditions: SPR, Single Cycle Kinetics, 1:1 binding model; GDP-bound KRAS wild-type protein; read-out: KRAS KD
GDP-bound KRAS wild-type protein, sequence (P01116 whole entry): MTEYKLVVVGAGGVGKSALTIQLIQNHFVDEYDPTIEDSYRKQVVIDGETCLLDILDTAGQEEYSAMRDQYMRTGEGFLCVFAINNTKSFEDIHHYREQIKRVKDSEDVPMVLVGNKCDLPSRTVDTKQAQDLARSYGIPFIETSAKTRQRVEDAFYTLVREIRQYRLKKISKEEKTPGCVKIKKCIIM

GDP-bound HRAS wild-type protein, sequence (P01112 whole entry): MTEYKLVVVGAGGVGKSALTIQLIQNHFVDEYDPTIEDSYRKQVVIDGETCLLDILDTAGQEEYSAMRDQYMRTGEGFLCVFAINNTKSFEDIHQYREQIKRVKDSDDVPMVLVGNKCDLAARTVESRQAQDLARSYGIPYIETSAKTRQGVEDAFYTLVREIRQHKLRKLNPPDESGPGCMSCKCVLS

Row | SMILES | HRAS/KRAS (ratio of KD value for HRAS to KD value for KRAS) [1] | IC50 [2] [nM] | NRAS/KRAS (ratio of KD value for NRAS to KD value for KRAS) [3] | Kd [4] [nM]
1 | CCO[C@@H]1C[C@H]2C(=O)NC3(COC3)C(=O)N(C)[C@@H](C3CCCC3)C(=O)N(C)[C@H](C(=O)N(C)C)CC(=O)N(C)[C@@H](CC)C(=O)N[C@@H]([C@@H](C)CC)C(=O)N(C)CC(=O)N(C)[C@H]3C/C=C\CCN(C3=O)[C@@H](Cc3ccc(C(F)(F)F)cc3)C(=O)N(C)CC(=O)N[C@@H](CCc3cc(F)c(C(F)(F)F)c(F)c3)C(=O)N2C1 [PP1278, (2S,8S,12R,14S,20S,23S,27S,30S,36S,38Z)-20-cyclopentyl-8-[2-[3,5-difluoro-4-(trifluoromethyl)phenyl]ethyl]-12-ethoxy-27-ethyl-N,N,4,19,22,26,32,35-octamethyl-30-[(1S)-1-methylpropyl]-3,6,9,15,18,21,25,28,31,34,42-undecaoxo-2-[[4-(trifluoromethyl)phenyl]methyl]spiro[1,4,7,10,16,19,22,26,29,32,35-undecazatricyclo[34.5.1.0^10,14]dotetracont-38-ene-17,3′-oxetane]-23-carboxamide] | B (a compound having 3 or more and less than 10 is denoted as B) | 45.7 | A (a compound having 10 or more and less than 20 is denoted as A) | 0.14
2 | CCO[C@@H]1C[C@H]2C(=O)NC3(CCOCC3)C(=O)N(C)[C@@H](C3CCCC3)C(=O)N(C)[C@H](C(=O)N(C)C)CC(=O)N(C)[C@@H](CC)C(=O)N[C@@H]([C@@H](C)CC)C(=O)N(C)CC(=O)N(C)[C@H]3C/C=C\CCN(C3=O)[C@@H](Cc3ccc(C(F)(F)F)cc3)C(=O)N(C)CC(=O)N[C@@H](CCc3cc(F)c(C(F)(F)F)c(F)c3)C(=O)N2C1 [PP1279] | A (a compound having 10 or more and less than 20 is denoted as A) | 72.6 | A (a compound having 10 or more and less than 20 is denoted as A) | 0.27
3 | CCO[C@@H]1C[C@H]2C(=O)NC(C)(C)C(=O)N(C)[C@@H](C3CCCC3)C(=O)N(C)[C@H](C(=O)N(C)C)CC(=O)N(C)[C@@H](CC)C(=O)N[C@@H]([C@@H](C)CC)C(=O)N(C)CC(=O)N(C)[C@H]3C/C=C\CCN(C3=O)[C@@H](Cc3ccc(C(F)(F)F)cc3)C(=O)N(C)CC(=O)N[C@@H](CCc3cc(F)c(C(F)(F)F)c(F)c3)C(=O)N2C1 [PP1280] | A (a compound having 10 or more and less than 20 is denoted as A) | 34.4 | A (a compound having 10 or more and less than 20 is denoted as A) | 0.15
4 | CCO[C@@H]1C[C@H]2C(=O)NC3(CCC3)C(=O)N(C)[C@@H](C3CCCC3)C(=O)N(C)[C@H](C(=O)N3CCOCC3)CC(=O)N(C)[C@@H](CC)C(=O)N[C@@H]([C@@H](C)CC)C(=O)N(C)CC(=O)N(C)[C@H]3C/C=C\CCN(C3=O)[C@@H](Cc3ccc(C(F)(F)F)cc3)C(=O)N(C)CC(=O)N[C@@H](CCc3ccc(C(F)(F)F)c(Cl)c3)C(=O)N2C1 [PP1281, (2S,8S,12R,14S,20S,23S,27S,30S,36S,38Z)-8-[2-[3-chloro-4-(trifluoromethyl)phenyl]ethyl]-20-cyclopentyl-12-ethoxy-27-ethyl-4,19,22,26,32,35-hexamethyl-30-[(1S)-1-methylpropyl]-23-(morpholine-4-carbonyl)-2-[[4-(trifluoromethyl)phenyl]methyl]spiro[1,4,7,10,16,19,22,26,29,32,35-undecazatricyclo[34.5.1.0^10,14]dotetracont-38-ene-17,1′-cyclobutane]-3,6,9,15,18,21,25,28,31,34,42-undecone] | A (a compound having 10 or more and less than 20 is denoted as A) | 10.2 | AA (a compound having 20 or more is denoted as AA) | 0.14
5 | CCO[C@@H]1C[C@H]2C(=O)NC3(CCC3)C(=O)N(C)[C@@H](C3CCCC3)C(=O)N(C)[C@H](C(=O)N3CCOCC3)CC(=O)N(C)[C@@H](CC(C)C)C(=O)N[C@@H]([C@@H](C)CC)C(=O)N(C)CC(=O)N(C)[C@H]3C/C=C\CCN(C3=O)[C@@H](Cc3ccc(C(F)(F)F)cc3)C(=O)N(C)CC(=O)N[C@@H](CCc3cc(F)c(C(F)(F)F)c(F)c3)C(=O)N2C1 [PP1282] | A (a compound having 10 or more and less than 20 is denoted as A) | 12.3 | A (a compound having 10 or more and less than 20 is denoted as A) | 0.2
6 | CCO[C@@H]1C[C@H]2C(=O)NC3(CCC3)C(=O)N(C)[C@@H](C3CCCC3)C(=O)N(C)[C@H](C(=O)N3CCOCC3)CC(=O)N(C)[C@@H](CC3CC3)C(=O)N[C@@H]([C@@H](C)CC)C(=O)N(C)CC(=O)N(C)[C@H]3C/C=C\CCN(C3=O)[C@@H](Cc3ccc(C(F)(F)F)cc3)C(=O)N(C)CC(=O)N[C@@H](CCc3cc(F)c(C(F)(F)F)c(F)c3)C(=O)N2C1 [PP1283] | A (a compound having 10 or more and less than 20 is denoted as A) | 42.6 | AA (a compound having 20 or more is denoted as AA) | 0.2
7 | CCO[C@@H]1C[C@H]2C(=O)NC3(CCC3)C(=O)N(C)[C@@H](C3CCCC3)C(=O)N(C)[C@H](C(=O)N3CCOCC3)CC(=O)N(C)[C@@H](C)C(=O)N[C@@H]([C@@H](C)CC)C(=O)N(C)CC(=O)N(C)[C@H]3C/C=C\CCN(C3=O)[C@@H](Cc3ccc(C(F)(F)F)cc3)C(=O)N(C)CC(=O)N[C@@H](CCc3cc(F)c(C(F)(F)F)c(F)c3)C(=O)N2C1 [PP1284] | A (a compound having 10 or more and less than 20 is denoted as A) | 54.8 | AA (a compound having 20 or more is denoted as AA) | 0.12
8 | CCO[C@@H]1C[C@H]2C(=O)NC3(CCC3)C(=O)N(C)[C@@H](C3CCCC3)C(=O)N(C)[C@H](C(=O)N3CCOCC3)CC(=O)N(C)[C@@H](CC(F)F)C(=O)N[C@@H]([C@@H](C)CC)C(=O)N(C)CC(=O)N(C)[C@H]3C/C=C\CCN(C3=O)[C@@H](Cc3ccc(C(F)(F)F)cc3)C(=O)N(C)CC(=O)N[C@@H](CCc3cc(F)c(C(F)(F)F)c(F)c3)C(=O)N2C1 [PP1285] | A (a compound having 10 or more and less than 20 is denoted as A) | 24.6 | AA (a compound having 20 or more is denoted as AA) | 0.15
9 | CCO[C@@H]1C[C@H]2C(=O)NC3(CCC3)C(=O)N(C)[C@@H](C(CC)CC)C(=O)N(C)[C@H](C(=O)N3CCOCC3)CC(=O)N(C)[C@@H](CC)C(=O)N[C@@H]([C@@H](C)CC)C(=O)N(C)CC(=O)N(C)[C@H]3C/C=C\CCN(C3=O)[C@@H](Cc3ccc(C(F)(F)F)cc3)C(=O)N(C)CC(=O)N[C@@H](CCc3cc(F)c(C(F)(F)F)c(F)c3)C(=O)N2C1 [PP1286] | A (a compound having 10 or more and less than 20 is denoted as A) | 58.8 | AA (a compound having 20 or more is denoted as AA) | 0.65
10 | CCO[C@@H]1C[C@H]2C(=O)NC3(CCC3)C(=O)N(C)[C@@H](C(CC)CC)C(=O)N(C)[C@H](C(=O)N3CCOCC3)CC(=O)N(C)[C@@H](CC(C)C)C(=O)N[C@@H]([C@@H](C)CC)C(=O)N(C)CC(=O)N(C)[C@H]3C/C=C\CCN(C3=O)[C@@H](Cc3ccc(C(F)(F)F)cc3)C(=O)N(C)CC(=O)N[C@@H](CCc3cc(F)c(C(F)(F)F)c(F)c3)C(=O)N2C1 [PP1287] | A (a compound having 10 or more and less than 20 is denoted as A) | 49.7 | AA (a compound having 20 or more is denoted as AA) | 0.56
11 | CCC[C@H]1C(=O)N[C@@H]([C@@H](C)CC)C(=O)N(C)CC(=O)N(C)[C@H]2C/C=C\CCN(C2=O)[C@@H](Cc2ccc(C(F)(F)F)cc2)C(=O)N(C)CC(=O)N[C@@H](CCc2cc(F)c(C(F)(F)F)c(F)c2)C(=O)N2C[C@H](OCC)C[C@H]2C(=O)NC2(CCC2)C(=O)N(C)[C@@H](C2CCCC2)C(=O)N(C)[C@H](C(=O)N2CCOCC2)CC(=O)N1C [PP1288] | A (a compound having 10 or more and less than 20 is denoted as A) | 22.2 | AA (a compound having 20 or more is denoted as AA) | 0.18
12 | CCO[C@@H]1C[C@H]2C(=O)NC3(CCC3)C(=O)N(C)[C@@H](C3CCCC3)C(=O)N(C)[C@H](C(=O)N3CCCCC3)CC(=O)N(C)[C@@H](CC)C(=O)N[C@@H]([C@@H](C)CC)C(=O)N(C)CC(=O)N(C)[C@H]3C/C=C\CCN(C3=O)[C@@H](Cc3ccc(C(F)(F)F)cc3)C(=O)N(C)CC(=O)N[C@@H](CCc3cc(F)c(C(F)(F)F)c(F)c3)C(=O)N2C1 [PP1289] | A (a compound having 10 or more and less than 20 is denoted as A) | 34.7 | AA (a compound having 20 or more is denoted as AA) | 0.17
13 | CCO[C@@H]1C[C@H]2C(=O)NC3(CCC3)C(=O)N(C)[C@@H](C3CCCC3)C(=O)N(C)[C@H](C(=O)N3CCCCC3)CC(=O)N(C)[C@@H](CC(C)C)C(=O)N[C@@H]([C@@H](C)CC)C(=O)N(C)CC(=O)N(C)[C@H]3C/C=C\CCN(C3=O)[C@@H](Cc3ccc(C(F)(F)F)cc3)C(=O)N(C)CC(=O)N[C@@H](CCc3cc(F)c(C(F)(F)F)c(F)c3)C(=O)N2C1 [PP1290] | A (a compound having 10 or more and less than 20 is denoted as A) | 15.4 | AA (a compound having 20 or more is denoted as AA) | 0.24
